Data on two compounds can be found in patent publication US5206029A, “Medicament and its production and use in the treatment of pain, inflammation and fever in man and animals” (PAZ Arzneimittel-Entwicklungsgesellschaft mbH, priority 1990, dated 1993).

One data set relates to gastro-intestinal mucosa. In words: gastrointestinal toxicity in the rat (gastric ulcer index, intestinal ulcer). Type of data set: in vivo. The method, then: Each of the test groups were sacrificed after 24 hours, the stomach and intestines were removed and the stomach opened and cleaned with salt solution. The number of ulcerations multiplied with the diameter thereof in mm. is given as the "gastric ulcer index". The unopened small intestine was investigated for white and brown color changes. The corresponding sections were cut out and the weight thereof in comparison with the total weight plotted in % as "intestinal ulcer". The results are significant in the t-test in comparison with the control.

Data set [1] relates to interleukin 1-induced pain. In words: interleukin 1-induced pain test in rats. It is filed as in vivo, rat. As to conditions: FIG. 2. The text has this:
(§1) This unexpected result was verified by investigations in two animal models (mouse and rat).
(§2) FIGS. 1-4 are graphs of tests in rats for cramp pain, interleukin-1-inducedpain, prostaglandin production and carrageenin-induced paw oedema for the R(-) and S(+) enantiomers of flurbiprofen, […]

Details of data set [2]: species or system mouse and rat. As to conditions: in vivo.
Description: as §1

For another data set, the system named is cramp pain. The data set is described as follows: cramp pain test in mice. It is filed as in vivo, mouse. As to conditions: FIG. 1.
Description: as §1, §2

The subject of data set [3] is carrageenin-induced paw oedema. In words: carrageenin-induced paw oedema of the rat. To be noted: for oedema inhibition: 0.3 mg./kg. per os, paw volume after 3 hours p.a., FIG. 4. Type of data set: in vivo, rat (male Sprague-Dawley). The method, then: To male Sprague-Dawley rats, each with a body weight of 120 to 150 g., were administered per os with a stomach probe the test substances (0.3 mg./kg. body weight). Immediately thereafter, into the left rear paw was injected subplantary 0.1 ml. of a.1% carrageenin solution in order to induce oedema. After 3 hours p.a., the paw volumes were determined by means of a plethysmometer (modified method according to Hofrichter).
(In general: Carrageenan injected into the paw causes an acute inflammation.)

The subject of data set [4] is macrophages (peritoneum of the mouse). In words: inhibition of prostaglandin liberation on macrophages (peritoneum of the mouse). It is filed as cell-based. As for the experimental part:
Furthermore, contrary to the published state of knowledge (v. supra), S(+)-flurbiprofen in the case of administration after episiotomy is preferably effective antiphlogistically and not preferably analgesically. This further surprising test result was tested on two inflammation models selected independently of one another.

The test system of a further data set is post-episiotomy pain. To be noted: half dosage; A. Sunshine et al., Clin. Pharmacol Ther. 1987; cited from earlier work.

Take `C[C@@H](C(=O)O)c1ccc(-c2ccccc2)c(F)c1` [R(-)-flurbiprofen]: in the data set on gastro-intestinal mucosa (summary statement), the “toxicity on the gastrointestinal tract, compared with the racemate or the S(+)-enantiomer” value is “lower grade toxicity on the gastrointestinal tract than the racemate or the S(+)-enantiomer”. Further, the “analgesic effectiveness in the interleukin 1-induced pain test, R- versus S-enantiomer” value in data set [1] is reported as “equal or even more effective by about one third to a half”. In addition, the inversion after administration result in data set [2] is “no or only a very small inversion”. In addition, in the data set on cramp pain, the “analgesic effectiveness in the cramp pain test, R- versus S-enantiomer” value is listed as “equal or even more effective by about one third to a half”. Moreover, the oedema inhibition in data set [3] worked out at 18%.

On to `C[C@H](C(=O)O)c1ccc(-c2ccccc2)c(F)c1` [S(+)-flurbiprofen], for which the “damage of the gastro-intestinal mucosa” value with gastro-intestinal mucosa (rat, in vivo) is “only S(+)-flurbiprofen caused damage”. For the same compound, in data set [4], the “inhibition of the liberation of prostaglandin, compared with the R(-)-form” value was “inhibits the liberation of prostaglandin more markedly than the R(-)-form”. Also, the inversion after administration entry in data set [2] is on record as “no or only a very small inversion”. The “analgesic effectiveness compared with the racemate” value in the data set with post-episiotomy pain is on record as “already more effective at half dosage”. Further, the oedema inhibition in data set [3] amounted to 64%. In addition, the “inflammation-inhibiting action in carrageenin paw oedema, compared with the R(-)-form” value in data set [3] (rat, FIGS. 3 and 4) is listed as “superior in its inflammation-inhibiting action to the R(-)-form”.
